Reference: ChEMBL document CHEMBL1250537, “Synthesis and biological evaluation of diastereoisomerically pure N,O-nucleosides” (Bioorg Med Chem, 2010)

Columns and labels:
Assay type in all cases: functional, cell-based
[1] = Cytotoxicity against human LCL cells after 72 hrs by MTT assay
JIYOYE = assay: Cytotoxicity against human EBV-positive Jijoye cells after 72 hrs by MTT assay
Jurkat = assay: Cytotoxicity against human Jurkat cells after 72 hrs by MTT assay

Compound | IC50 [1] [µM] | IC50 (JIYOYE) [µM] | IC50 (Jurkat) [µM]
CN1O[C@@H](n2ccc(N)nc2=O)C[C@H]1c1ccccc1 (relative stereo) | > 100 | > 100 | > 100
CN1O[C@@H](n2ccc(N)nc2=O)C[C@@H]1c1ccccc1 (relative stereo) | > 100 | > 100 | > 100
Cc1cn([C@@H]2C[C@H](c3ccccc3)N(C)O2)c(=O)[nH]c1=O (relative stereo) | 82.5 | 60.9 | 76.6
Cc1cn([C@@H]2C[C@H](c3ccccc3)N(C(C)(C)C)O2)c(=O)[nH]c1=O (relative stereo) | 87.1 | 68.8 | 72.2
CC(C)(C)N1O[C@H](n2cc(F)c(=O)[nH]c2=O)C[C@@H]1c1ccccc1 (relative stereo) | 67.5 | 63.1 | 60.6
Cc1cn([C@@H]2C[C@H](c3ccco3)N(C(C)(C)C)O2)c(=O)[nH]c1=O (relative stereo) | > 100 | > 100 | > 100
Cc1cn([C@@H]2C[C@H](c3ccccc3Cl)N(C)O2)c(=O)[nH]c1=O (relative stereo) | 52.6 | 28.5 | 8.8
Cc1cn([C@@H]2C[C@H](c3ccccc3)N(Cc3ccccc3)O2)c(=O)[nH]c1=O (relative stereo) | 55.2 | 36.9 | 19.3
